In patent US11285167B2, “Synergistic nutritional neuroprotective compositions for ameliorating neural dysfunction” (CELAGENEX RESEARCH (INDIA) PVT. LTD., priority 2019, dated 2022):

How the values were obtained:
[1] = system: Major depression disorder in Wistar rats; test: Open field test (ambulatory behavior) in Reserpine-induced major depression disorder; assay type: in vivo; settings: 6 minute session, Reserpine induced, oral daily 7 days, mean ± SEM, n = 6
[2] = system: Major depression disorder in Wistar rats; test: Forced swim test in Reserpine-induced major depression disorder; assay type: in vivo; settings: forced swim test 5 min, Reserpine 1.0 mg/kg induced, oral daily 7 days, mean ± SEM, n = 6

## CN(C)CCC[C@@]1(c2ccc(F)cc2)OCc2cc(C#N)ccc21 [Escitalopram, reference compound]
[1]
  No. of open arm entries (Open field test): 47.83 ± 0.60
[2]
  Climbing: 20.17 ± 0.87
  Immobility: 91.67 ± 0.80
  Total time spent in active swimming: 208.33 ± 0.80 s
